# Results taken from paper PMC3966885, “F9 Fimbriae of Uropathogenic Escherichia coli Are Expressed at Low Temperature and Recognise Galβ1-3GlcNAc-Containing Glycans” (PLoS ONE, 2014).
# Molecular target: T1, F9 fimbriae (F9 adhesin) (Escherichia coli, UniProt A0A0H2V7F6)
# T1 construct: gene ydeQ; whole F9 fimbriae (six-gene operon c1931-c1936, plasmid pF9, ara promoter) over-expressed on GFP-labelled E. coli K-12 MG1655fim (MS428); mature adhesin 280 aa, N-terminal lectin domain 160 aa
# Assay: glycan array with whole GFP-labelled F9 over-expressing E. coli
# Type: cell-based
# Details: glycan printed on super epoxy slide; PBS with 2 mM MgCl2 and CaCl2, room temperature; also used free at 50 μM as competitor
# T1 sequence (A0A0H2V7F6 entry or part of it): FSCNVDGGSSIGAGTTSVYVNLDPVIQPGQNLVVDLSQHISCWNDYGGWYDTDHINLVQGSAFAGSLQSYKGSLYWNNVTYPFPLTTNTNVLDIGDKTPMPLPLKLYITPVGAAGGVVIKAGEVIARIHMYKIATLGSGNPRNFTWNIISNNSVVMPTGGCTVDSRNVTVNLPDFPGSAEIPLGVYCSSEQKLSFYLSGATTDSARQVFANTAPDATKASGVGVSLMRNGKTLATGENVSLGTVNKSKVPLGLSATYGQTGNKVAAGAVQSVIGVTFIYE
smiles,measurement,value
"CC(=O)N[C@H]1[C@H](O[C@H]2[C@@H](O)[C@@H](CO)O[C@@H](O[C@H]3[C@H](O)[C@@H](O)C(O)O[C@@H]3CO)[C@@H]2O)O[C@H](CO)[C@@H](O)[C@@H]1O[C@@H]1O[C@H](CO)[C@H](O)[C@H](O)[C@H]1O (stereo partly shown) [lacto-N-tetraose, Galβ1-3GlcNAcβ1-3Galβ1-4Glc]",glycan array with whole GFP-labelled F9 over-expressing E. coli,"Of the glycans that were bound by F9 fimbriae, lacto-N-tetraose displayed the highest affinity"
